In patent EP1029544A1, “INTRA-CANCER-CELL NUCLEASE ACTIVATOR” (Nippon Shinyaku Co., Ltd., priority 1997, dated 1999):
Values after ≈ are worked out from the molar mass of the structure shown.

Tests used:
Assay in all cases: Growth inhibitory effect (in vitro), MTT method
Assay type in all cases: cell-based
[1] = test system: NRK-49F; settings: 72 h, Rat normal kidney fibroblast (non-cancer), 3 days
Method: (§1) A 96-well plate was seeded with cells at a density of 10^4 cells/well. On the following day, the activator of Example 4 or adriamycin was added and the cultivation was continued. After 3 days the viable cell count was determined by the MTT method.

[2] = test system: AsPC-1; settings: Homo sapiens, ASPC1, 72 h; AsPC-1, Pancreatic adenocarcinoma; 3 days
Method: as §1

[3] = test system: Swiss/3T3; settings: 72 h; Swiss/3T3, Mouse embryonic cell (non-cancer); 3 days
Method: as §1

[4] = test system: Hs0578T; settings: 72 h, Breast ductal carcinoma, 3 days
Method: as §1

[5] = test system: A431; settings: Homo sapiens, A-431, 72 h; A431, Epidemoid carcinoma; 3 days
Method: as §1

[6] = test system: A673; settings: Homo sapiens, 72 h; A673, Rhabdomyosarcoma; 3 days
Method: as §1

[7] = test system: KB; settings: Homo sapiens, 72 h, Oral epidemiod carcinoma, 3 days
Method: as §1

[8] = test system: HT1376; settings: Homo sapiens, HT-1376, 72 h; HT1376, Bladder carcinoma; 3 days
Method: as §1

[9] = test system: RD; settings: Homo sapiens, 72 h, Rhabdomyosarcoma, 3 days
Method: as §1

[10] = test system: NC65; settings: 72 h; NC65, Pancreatic cancer; 3 days
Method: as §1

[11] = test system: T47D; settings: Homo sapiens, 72 h, Breast ductal carchoma, 3 days
Method: as §1

[12] = test system: PLC/PRF/5; settings: Homo sapiens, 72 h; PLC/PRF/5, Hepatoma; 3 days
Method: as §1

[13] = test system: NIH/3T3; settings: NIH3T3, 72 h; NIH/3T3, Mouse embryonic cell (non-cancer); 3 days
Method: as §1

[14] = test system: BHK-21; settings: Mesocricetus auratus, 72 h; BHK-21, Hamster kidney cell (non-cancer); 3 days
Method: as §1

[15] = test system: HT144; settings: Homo sapiens, HT-144, 72 h; HT144, Malignant melanoma; 3 days
Method: as §1

[16] = test system: PC-3; settings: Homo sapiens, 72 h; PC-3, Prostate adenocarcinoma; 3 days
Method: as §1

[17] = test system: BNL CL.2; settings: 72 h; BNL CL.2, Mouse normal liver cell (non-cancer); 3 days
Method: as §1

[18] = test system: LoVo; settings: Homo sapiens, 72 h, Colon adenocarcinoma, 3 days
Method: as §1

[19] = test system: SK-HEP-1; settings: Homo sapiens, SK-HEP1, 72 h; SK-HEP-1, Liver adenocarcinoma; 3 days
Method: as §1

[20] = test system: MDA-MB-468; settings: Homo sapiens, 72 h; MDA-MB-468, Breast adenocarcinoma; 3 days
Method: as §1

[21] = test system: COLO320DM; settings: Homo sapiens, COLO 320DM, 72 h, Colon adenocarcinoma, 3 days
Method: as §1

[22] = test system: BALB/c3T3 cloneA31; settings: 72 h; BALB/c3T3 cloneA31, Mouse embryonic cell (non-cancer); 3 days
Method: as §1

[23] = test system: SK-OV-3; settings: Homo sapiens, 72 h; SK-OV-3, Ovary adenocarcinoma; 3 days
Method: as §1

[24] = test system: McA-8994; settings: 72 h; McA-8994, Rat hepatoma; 3 days
Method: as §1

[25] = test system: DU145; settings: Homo sapiens, DU-145, 72 h; DU145, Prostate carcinoma; 3 days
Method: as §1

[26] = test system: MDA-MB-134VI; settings: Homo sapiens, 72 h, Breast ductal carcinoma, 3 days
Method: as §1

[27] = test system: Malme 3M; settings: Homo sapiens, 72 h, Malignant melanoma, 3 days
Method: as §1

[28] = test system: SAOS2; settings: Homo sapiens, SAOS-2, 72 h; SAOS2, Osteogenic sarcoma; 3 days
Method: as §1

[29] = test system: WRL68; settings: 72 h; WRL68, Human embryo liver cell (non-cancer); 3 days
Method: as §1

[30] = test system: OVCAR3; settings: Homo sapiens, OVCAR-3, 72 h; OVCAR3, Ovary adenocarcinoma; 3 days
Method: as §1

[31] = test system: CHO-K1; settings: Cricetulus griseus, 72 h; CHO-K1, Chinese hamster ovary cell (non-cancer); 3 days
Method: as §1

[32] = test system: NCTCclone1469; settings: 72 h; NCTCclone1469, Mouse normal liver cell (non-cancer); 3 days
Method: as §1

[33] = test system: TSU-PR-1; settings: Homo sapiens, TSU-Pr1, 72 h; TSU-PR-1, Prostate cancer; 3 days
Method: as §1

[34] = test system: Ls174T; settings: Homo sapiens, 72 h, Colon adenocarcinoma, 3 days
Method: as §1

[35] = test system: CALU6; settings: Homo sapiens, Calu-6, 72 h; CALU6, Lung anaplastic carcinoma; 3 days
Method: as §1

[36] = test system: KM12-HX; settings: Homo sapiens, 72 h, Colon cancer, 3 days
Method: as §1

[37] = test system: Clone9; settings: 72 h; Clone9, Rat normal liver cell (non-cancer); 3 days
Method: as §1

[38] = test system: HeLaS3; settings: Homo sapiens, HeLa S3, 72 h; HeLaS3, Cervix epitheloid carcinoma; 3 days
Method: as §1

[39] = test system: BALB/c CL.7; settings: 72 h; BALB/c CL.7, Mouse normal fibroblast (non-cancer); 3 days
Method: as §1

[40] = test system: MDA-MB-453; settings: Homo sapiens, 72 h; MDA-MB-453, Breast carcinoma; 3 days
Method: as §1

[41] = test system: SW480; settings: Homo sapiens, 72 h; SW480, Colon adenocarcinoma; 3 days
Method: as §1

[42] = test system: A-204; settings: Homo sapiens, A204, 72 h; A-204, Rhabdomyosarcoma; 3 days
Method: as §1

[43] = test system: RT4; settings: Homo sapiens, RT-4, 72 h; RT4, Bladder papillima; 3 days
Method: as §1

[44] = test system: SK-BR-3; settings: Homo sapiens, 72 h; SK-BR-3, Breast adenocarcinoma; 3 days
Method: as §1

[45] = test system: A546; settings: 72 h; A546, Lung carcinoma; 3 days
Method: as §1

[46] = test system: WM-266-4; settings: Homo sapiens, 72 h; WM-266-4, Melanoma; 3 days
Method: as §1

[47] = test system: HCC-T; settings: 72 h, Liver cancer, 3 days
Method: as §1

[48] = test system: G-361; settings: Homo sapiens, 72 h; G-361, Malignant melanoma; 3 days
Method: as §1

COc1cccc2c1C(=O)c1c(O)c3c(c(O)c1C2=O)C[C@@](O)(C(=O)CO)C[C@@H]3O[C@H]1C[C@H](N)[C@H](O)[C@H](C)O1 [Adriamycin]
IC50 [1]: > 1 µg/mL | IC50 [2]: 0.8 µg/mL (≈ 1.47 µM) | IC50 [3]: 0.903 µg/mL (≈ 1.66 µM) | IC50 [4]: 0.76 µg/mL (≈ 1.4 µM) | IC50 [5]: 0.052 µg/mL (≈ 0.0957 µM) | IC50 [6]: 0.104 µg/mL (≈ 0.191 µM) | IC50 [7]: 0.025 µg/mL (≈ 0.046 µM) | IC50 [8]: 0.217 µg/mL (≈ 0.399 µM) | IC50 [9]: 0.208 µg/mL (≈ 0.383 µM) | IC50 [10]: 0.073 µg/mL (≈ 0.134 µM) | IC50 [11]: 0.114 µg/mL (≈ 0.21 µM) | IC50 [12]: 0.042 µg/mL (≈ 0.0773 µM) | IC50 [13]: 0.102 µg/mL (≈ 0.188 µM) | IC50 [14]: 0.047 µg/mL (≈ 0.0865 µM) | IC50 [15]: 0.219 µg/mL (≈ 0.403 µM) | IC50 [16]: > 1 µg/mL | IC50 [17]: 0.398 µg/mL (≈ 0.732 µM) | IC50 [18]: 0.065 µg/mL (≈ 0.12 µM) | IC50 [19]: 0.302 µg/mL (≈ 0.556 µM) | IC50 [20]: 0.057 µg/mL (≈ 0.105 µM) | IC50 [21]: 0.838 µg/mL (≈ 1.54 µM) | IC50 [22]: 0.427 µg/mL (≈ 0.786 µM) | IC50 [23]: 0.252 µg/mL (≈ 0.464 µM) | IC50 [24]: > 1 µg/mL | IC50 [25]: 0.236 µg/mL (≈ 0.434 µM) | IC50 [26]: 0.081 µg/mL (≈ 0.149 µM) | IC50 [27]: 0.114 µg/mL (≈ 0.21 µM) | IC50 [28]: 0.075 µg/mL (≈ 0.138 µM) | IC50 [29]: 0.283 µg/mL (≈ 0.521 µM) | IC50 [30]: > 1 µg/mL | IC50 [31]: 0.02 µg/mL (≈ 0.0368 µM) | IC50 [32]: 0.101 µg/mL (≈ 0.186 µM) | IC50 [33]: 0.572 µg/mL (≈ 1.05 µM) | IC50 [34]: 0.096 µg/mL (≈ 0.177 µM) | IC50 [35]: 0.282 µg/mL (≈ 0.519 µM) | IC50 [36]: 0.13 µg/mL (≈ 0.239 µM) | IC50 [37]: 0.228 µg/mL (≈ 0.419 µM) | IC50 [38]: 0.049 µg/mL (≈ 0.0902 µM) | IC50 [39]: 0.117 µg/mL (≈ 0.215 µM) | IC50 [40]: 0.143 µg/mL (≈ 0.263 µM) | IC50 [41]: 0.097 µg/mL (≈ 0.178 µM) | IC50 [42]: 0.076 µg/mL (≈ 0.14 µM) | IC50 [43]: 0.058 µg/mL (≈ 0.107 µM) | IC50 [44]: 0.078 µg/mL (≈ 0.144 µM) | IC50 [45]: 0.831 µg/mL (≈ 1.53 µM) | IC50 [46]: 0.206 µg/mL (≈ 0.379 µM) | IC50 [47]: 0.076 µg/mL (≈ 0.14 µM) | IC50 [48]: 0.146 µg/mL (≈ 0.269 µM)
